From patent publication US12660819B2, “Herbicidal derivatives” (SYNGENTA CROP PROTECTION AG, priority 2020, dated 2026)

What was measured:
Assay type in all cases: in vivo
[1] = tested on: Echinochloa crus-galli (ECHCG); assay: Pre-emergence Test (glasshouse, percentage damage to the plant); conditions: 1000 g/ha unless otherwise stated; for percentage damage to the plant, ECHCG: five-point scale; for percentage damage to the plant, ECHCG (five-point scale): Echinochloa crus-galli
Lolium perenne (LOLPE) [2] = assay: as above; conditions: 1000 g/ha unless otherwise stated, five-point scale
Setaria faberi (SETFA) [3] = assay: as above; conditions: 1000 g/ha unless otherwise stated; for percentage damage to the plant, SETFA: five-point scale; for percentage damage to the plant, SETFA (five-point scale): Setaria faberi
[4] = tested on: Amaranthus retoflexus (AMARE); assay: as above; conditions: 1000 g/ha unless otherwise stated; for percentage damage to the plant, AMARE: five-point scale; for percentage damage to the plant, AMARE (five-point scale): Amaranthus retoflexus
Lolium perenne (LOLPE) [5] = assay: Post-emergence Test (glasshouse, percentage damage to the plant); conditions: post-emergence spray, 1000 g/ha unless otherwise stated, evaluated after 13 days
Method in brief: (§1)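 Damage was rated 13 days after treatment and expressed on a five-point scale: 5=81-100%, 4=61-80%, 3=41-60%, 2=21-40%, 1=0-20%. Spray was applied at 1000 g/ha unless otherwise stated, from acetone/water (50:50) with 0.5% Tween 20, to sown pots.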

[6] = tested on: Amaranthus retoflexus (AMARE); assay: as above; conditions: 1000 g/ha unless otherwise stated, evaluated after 13 days; for Post-emergence Test AMARE, percentage damage to the plant (five-point scale): post-emergence spray; for AMARE, percentage damage caused to the plant (five-point scale): post-emergence
Method in brief: as §1

[7] = tested on: Ipomoea hederacea (IPOHE); assay: as above; conditions: 1000 g/ha unless otherwise stated, evaluated after 13 days; for Post-emergence Test IPOHE, percentage damage to the plant (five-point scale): post-emergence spray; for IPOHE, percentage damage caused to the plant (five-point scale): post-emergence
Method in brief: (§2)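 Percentage damage to the plant, assessed 13 days after application and scored 1–5 in 20% bands. Pots sown in standard soil received compound at 1000 g/ha unless otherwise stated, sprayed under 24/16 °C, 14 h light, 65% humidity.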

[8] = tested on: Echinochloa crus-galli (ECHCG); assay: as above; conditions: 1000 g/ha unless otherwise stated, evaluated after 13 days; for Post-emergence Test ECHCG, percentage damage to the plant (five-point scale): post-emergence spray; for ECHCG, percentage damage caused to the plant (five-point scale): post-emergence
Method in brief: as §1

Setaria faberi (SETFA) [9] = assay: as above; conditions: 1000 g/ha unless otherwise stated, evaluated after 13 days; for Post-emergence Test SETFA, percentage damage to the plant (five-point scale): post-emergence spray; for SETFA, percentage damage caused to the plant (five-point scale): post-emergence
Method in brief: as §2

[10] = tested on: Ipomoea hederacea (IPOHE); assay: Pre-emergence Test (glasshouse, percentage damage to the plant); conditions: 1000 g/ha unless otherwise stated; for percentage damage to the plant, IPOHE (five-point scale): Ipomoea hederacea
[11] = tested on: Amaranthus palmeri (AMAPA); assay: as above; conditions: 1000 g/ha unless otherwise stated, Amaranthus palmeri
Zea mays (ZEAMX) [12] = assay: as above; conditions: 1000 g/ha unless otherwise stated, Zea mays
[13] = tested on: Amaranthus palmeri (AMAPA); assay: Post-emergence Test (glasshouse, percentage damage to the plant); conditions: post-emergence; 1000 g/ha unless otherwise stated; evaluated after 13 days
Method in brief: as §1

Zea mays (ZEAMX) [14] = assay: as above; conditions: post-emergence; 1000 g/ha unless otherwise stated; evaluated after 13 days
Method in brief: as §2

## CCn1c(C)c(-c2ccc(Cl)cc2)c(=O)c(C(=O)NN(C)C)c1-c1ccc(Cl)c(Cl)c1 [Compound 2, 5-(4-chlorophenyl)-2-(3,4-dichlorophenyl)-1-ethyl-N′,N′,6-trimethyl-4-oxo-pyridine-3-carbohydrazide]
[1]
  percentage damage to the plant, ECHCG: 1 (1=0-20%)
Lolium perenne (LOLPE) [2]
  percentage damage to the plant, LOLPE: 1 (1=0-20%)
Setaria faberi (SETFA) [3]
  percentage damage to the plant, SETFA: 1 (1=0-20%)
[4]
  percentage damage to the plant, AMARE: 3 (3=41-60%)
Lolium perenne (LOLPE) [5]
  Post-emergence Test LOLPE, percentage damage to the plant (five-point scale): 1 (1=0-20%)
[6]
  Post-emergence Test AMARE, percentage damage to the plant (five-point scale): 3 (3=41-60%)
[7]
  Post-emergence Test IPOHE, percentage damage to the plant (five-point scale): 2 (2=21-40%)
[8]
  Post-emergence Test ECHCG, percentage damage to the plant (five-point scale): 2 (2=21-40%)
Setaria faberi (SETFA) [9]
  Post-emergence Test SETFA, percentage damage to the plant (five-point scale): 4 (4=61-80%)

## CCn1c(C)c(-c2ccc(F)cc2F)c(=O)c(C(=O)O)c1-c1ccc(Cl)c(Cl)c1 [Compound 3, 2-(3,4-dichlorophenyl)-5-(2,4-difluorophenyl)-1-ethyl-6-methyl-4-oxo-pyridine-3-carboxylic acid]
[10]; five-point scale
  percentage damage to the plant, IPOHE: 4 (4=61-80%)
[1]
  percentage damage to the plant, ECHCG: 4 (4=61-80%)
Lolium perenne (LOLPE) [2]
  percentage damage to the plant, LOLPE: 3 (3=41-60%)
Setaria faberi (SETFA) [3]
  percentage damage to the plant, SETFA: 5 (5=81-100%)
[4]
  percentage damage to the plant, AMARE: 5 (5=81-100%)
Lolium perenne (LOLPE) [5]
  Post-emergence Test LOLPE, percentage damage to the plant (five-point scale): 4 (4=61-80%)
[6]
  Post-emergence Test AMARE, percentage damage to the plant (five-point scale): 5 (5=81-100%)
[7]
  Post-emergence Test IPOHE, percentage damage to the plant (five-point scale): 4 (4=61-80%)
[8]
  Post-emergence Test ECHCG, percentage damage to the plant (five-point scale): 5 (5=81-100%)
Setaria faberi (SETFA) [9]
  Post-emergence Test SETFA, percentage damage to the plant (five-point scale): 5 (5=81-100%)

## Cc1c(-c2ccc(F)cc2F)c(=O)c(C(=O)O)c(-c2ccc(Cl)c(Cl)c2)n1C [Compound 252, 2-(3,4-dichlorophenyl)-5-(2,4-difluorophenyl)-1,6-dimethyl-4-oxo-pyridine-3-carboxylic acid]
[10]
  percentage damage to the plant, IPOHE (five-point scale): 3 (3=41-60%)
[1]
  percentage damage to the plant, ECHCG (five-point scale): 5 (5=81-100%)
[11]
  percentage damage to the plant, AMAPA (five-point scale): 5 (5=81-100%)
Zea mays (ZEAMX) [12]
  percentage damage to the plant, ZEAMX (five-point scale): 0
Setaria faberi (SETFA) [3]
  percentage damage to the plant, SETFA (five-point scale): 4 (4=61-80%)
[4]
  percentage damage to the plant, AMARE (five-point scale): 3 (3=41-60%)
[13]
  AMAPA, percentage damage caused to the plant (five-point scale): 5 (5=81-100%)
[6]
  AMARE, percentage damage caused to the plant (five-point scale): 4 (4=61-80%)
[7]
  IPOHE, percentage damage caused to the plant (five-point scale): 2 (2=21-40%)
[8]
  ECHCG, percentage damage caused to the plant (five-point scale): 5 (5=81-100%)
Zea mays (ZEAMX) [14]
  ZEAMX, percentage damage caused to the plant (five-point scale): 2 (2=21-40%)
Setaria faberi (SETFA) [9]
  SETFA, percentage damage caused to the plant (five-point scale): 4 (4=61-80%)

## Cc1c(-c2ccc(Cl)cc2F)c(=O)c(C(=O)O)c(-c2ccc(Cl)c(Cl)c2)n1C [Compound 253, 5-(4-chloro-2-fluoro-phenyl)-2-(3,4-dichlorophenyl)-1,6-dimethyl-4-oxo-pyridine-3-carboxylic acid]
[10]
  percentage damage to the plant, IPOHE (five-point scale): 4 (4=61-80%)
[1]
  percentage damage to the plant, ECHCG (five-point scale): 5 (5=81-100%)
[11]
  percentage damage to the plant, AMAPA (five-point scale): 5 (5=81-100%)
Zea mays (ZEAMX) [12]
  percentage damage to the plant, ZEAMX (five-point scale): 1 (1=0-20%)
Setaria faberi (SETFA) [3]
  percentage damage to the plant, SETFA (five-point scale): 5 (5=81-100%)
[4]
  percentage damage to the plant, AMARE (five-point scale): 5 (5=81-100%)
[13]
  AMAPA, percentage damage caused to the plant (five-point scale): 5 (5=81-100%)
[6]
  AMARE, percentage damage caused to the plant (five-point scale): 5 (5=81-100%)
[7]
  IPOHE, percentage damage caused to the plant (five-point scale): 3 (3=41-60%)
[8]
  ECHCG, percentage damage caused to the plant (five-point scale): 5 (5=81-100%)
Zea mays (ZEAMX) [14]
  ZEAMX, percentage damage caused to the plant (five-point scale): 3 (3=41-60%)
Setaria faberi (SETFA) [9]
  SETFA, percentage damage caused to the plant (five-point scale): 5 (5=81-100%)

## CCn1c(C)c(-c2ccc(Cl)cc2)c(=O)c(C(=O)O)c1-c1ccc(F)c(Cl)c1 [Compound 258, 2-(3-chloro-4-fluoro-phenyl)-5-(4-chlorophenyl)-1-ethyl-6-methyl-4-oxo-pyridine-3-carboxylic acid]
[10]
  percentage damage to the plant, IPOHE (five-point scale): 1 (1=0-20%)
[1]
  percentage damage to the plant, ECHCG (five-point scale): 5 (5=81-100%)
[11]
  percentage damage to the plant, AMAPA (five-point scale): 5 (5=81-100%)
Zea mays (ZEAMX) [12]
  percentage damage to the plant, ZEAMX (five-point scale): 1 (1=0-20%)
Setaria faberi (SETFA) [3]
  percentage damage to the plant, SETFA (five-point scale): 5 (5=81-100%)
[4]
  percentage damage to the plant, AMARE (five-point scale): 5 (5=81-100%)
[13]
  AMAPA, percentage damage caused to the plant (five-point scale): 5 (5=81-100%)
[6]
  AMARE, percentage damage caused to the plant (five-point scale): 4 (4=61-80%)
[7]
  IPOHE, percentage damage caused to the plant (five-point scale): 3 (3=41-60%)
[8]
  ECHCG, percentage damage caused to the plant (five-point scale): 5 (5=81-100%)
Zea mays (ZEAMX) [14]
  ZEAMX, percentage damage caused to the plant (five-point scale): 5 (5=81-100%)
Setaria faberi (SETFA) [9]
  SETFA, percentage damage caused to the plant (five-point scale): 5 (5=81-100%)

## CCn1c(C)c(-c2cc(OC(C)C)c(Cl)cc2F)c(=O)c(C(=O)O)c1-c1ccc(F)c(F)c1 [Compound 260, 5-(4-chloro-2-fluoro-5-isopropoxy-phenyl)-2-(3,4-difluorophenyl)-1-ethyl-6-methyl-4-oxo-pyridine-3-carboxylic acid]
[10]
  percentage damage to the plant, IPOHE (five-point scale): 3 (3=41-60%)
[1]
  percentage damage to the plant, ECHCG (five-point scale): 5 (5=81-100%)
[11]
  percentage damage to the plant, AMAPA (five-point scale): 4 (4=61-80%)
Zea mays (ZEAMX) [12]
  percentage damage to the plant, ZEAMX (five-point scale): 1 (1=0-20%)
Setaria faberi (SETFA) [3]
  percentage damage to the plant, SETFA (five-point scale): 4 (4=61-80%)
[4]
  percentage damage to the plant, AMARE (five-point scale): 4 (4=61-80%)
[13]
  AMAPA, percentage damage caused to the plant (five-point scale): 4 (4=61-80%)
[6]
  AMARE, percentage damage caused to the plant (five-point scale): 4 (4=61-80%)
[7]
  IPOHE, percentage damage caused to the plant (five-point scale): 3 (3=41-60%)
[8]
  ECHCG, percentage damage caused to the plant (five-point scale): 4 (4=61-80%)
Zea mays (ZEAMX) [14]
  ZEAMX, percentage damage caused to the plant (five-point scale): 3 (3=41-60%)
Setaria faberi (SETFA) [9]
  SETFA, percentage damage caused to the plant (five-point scale): 4 (4=61-80%)

## CCn1c(C)c(-c2cc(OCCOC)c(Cl)cc2F)c(=O)c(C(=O)O)c1-c1ccc(F)c(F)c1 [Compound 261, 5-[4-chloro-2-fluoro-5-(2-methoxyethoxy)phenyl]-2-(3,4-difluorophenyl)-1-ethyl-6-methyl-4-oxo-pyridine-3-carboxylic acid]
[10]
  percentage damage to the plant, IPOHE (five-point scale): 4 (4=61-80%)
[1]
  percentage damage to the plant, ECHCG (five-point scale): 4 (4=61-80%)
[11]
  percentage damage to the plant, AMAPA (five-point scale): 5 (5=81-100%)
Zea mays (ZEAMX) [12]
  percentage damage to the plant, ZEAMX (five-point scale): 1 (1=0-20%)
Setaria faberi (SETFA) [3]
  percentage damage to the plant, SETFA (five-point scale): 4 (4=61-80%)
[4]
  percentage damage to the plant, AMARE (five-point scale): 4 (4=61-80%)
[13]
  AMAPA, percentage damage caused to the plant (five-point scale): 4 (4=61-80%)
[6]
  AMARE, percentage damage caused to the plant (five-point scale): 5 (5=81-100%)
[7]
  IPOHE, percentage damage caused to the plant (five-point scale): 2 (2=21-40%)
[8]
  ECHCG, percentage damage caused to the plant (five-point scale): 4 (4=61-80%)
Zea mays (ZEAMX) [14]
  ZEAMX, percentage damage caused to the plant (five-point scale): 3 (3=41-60%)
Setaria faberi (SETFA) [9]
  SETFA, percentage damage caused to the plant (five-point scale): 4 (4=61-80%)

## CCn1c(C)c(-c2cc(OCC3CC3)c(Cl)cc2F)c(=O)c(C(=O)O)c1-c1ccc(F)c(F)c1 [Compound 262, 5-[4-chloro-5-(cyclopropylmethoxy)-2-fluoro-phenyl]-2-(3,4-difluorophenyl)-1-ethyl-6-methyl-4-oxo-pyridine-3-carboxylic acid]
[10]
  percentage damage to the plant, IPOHE (five-point scale): 3 (3=41-60%)
[1]
  percentage damage to the plant, ECHCG (five-point scale): 5 (5=81-100%)
[11]
  percentage damage to the plant, AMAPA (five-point scale): 5 (5=81-100%)
Zea mays (ZEAMX) [12]
  percentage damage to the plant, ZEAMX (five-point scale): 2 (2=21-40%)
Setaria faberi (SETFA) [3]
  percentage damage to the plant, SETFA (five-point scale): 5 (5=81-100%)
[4]
  percentage damage to the plant, AMARE (five-point scale): 5 (5=81-100%)
[13]
  AMAPA, percentage damage caused to the plant (five-point scale): 5 (5=81-100%)
[6]
  AMARE, percentage damage caused to the plant (five-point scale): 5 (5=81-100%)
[7]
  IPOHE, percentage damage caused to the plant (five-point scale): 2 (2=21-40%)
[8]
  ECHCG, percentage damage caused to the plant (five-point scale): 4 (4=61-80%)
Zea mays (ZEAMX) [14]
  ZEAMX, percentage damage caused to the plant (five-point scale): 4 (4=61-80%)
Setaria faberi (SETFA) [9]
  SETFA, percentage damage caused to the plant (five-point scale): 5 (5=81-100%)
